Experimental data taken from US10577368B2 (The United States of America, as represented by the …, priority 2013, dated 2020).
Like-named read-outs stand apart in the source and are kept apart here.

Assays:
[1] = molecular target: Alpha 1B adrenergic receptor (Homo sapiens (Human), UniProt P35368); assay: Off-target binding, α1B
From the text: (§1) The results are set forth below.

[2] = system: muscarinic, adrenergic, dopamine, GABA, histamine, opiate, serotonin receptors and transporters; assay: Off-target binding panel (receptors and transporters of Table 5); settings: for Interactions at other receptors of the off-target panel: 10 μM
From the text: as §1

[3] = molecular target: α1D adrenergic receptor (Homo sapiens (Human), UniProt P25100); assay: Off-target binding, α1D
From the text: as §1

[4] = molecular target: hA1AR (Homo sapiens (Human), UniProt P30542); assay: Radioligand binding at hA1AR, CHO cell membranes, [3H]R-PIA; settings: for inhibition at 10 µM: read-out: hA1AR % inhibition
hA1AR, sequence (P30542 whole entry): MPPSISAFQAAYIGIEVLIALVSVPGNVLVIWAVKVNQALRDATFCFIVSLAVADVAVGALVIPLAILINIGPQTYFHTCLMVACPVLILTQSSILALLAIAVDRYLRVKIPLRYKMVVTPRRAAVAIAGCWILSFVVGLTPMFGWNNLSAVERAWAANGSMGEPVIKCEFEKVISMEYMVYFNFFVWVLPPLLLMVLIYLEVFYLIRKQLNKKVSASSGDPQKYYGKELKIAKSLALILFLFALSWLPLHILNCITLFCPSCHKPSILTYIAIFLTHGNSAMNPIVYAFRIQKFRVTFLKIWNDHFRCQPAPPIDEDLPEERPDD

[5] = molecular target: Alpha 2C adrenergic receptor (Homo sapiens (Human), UniProt P18825); assay: Off-target binding, α2C; settings: read-out: Ki at α2C
Alpha 2C adrenergic receptor, sequence (P18825 whole entry): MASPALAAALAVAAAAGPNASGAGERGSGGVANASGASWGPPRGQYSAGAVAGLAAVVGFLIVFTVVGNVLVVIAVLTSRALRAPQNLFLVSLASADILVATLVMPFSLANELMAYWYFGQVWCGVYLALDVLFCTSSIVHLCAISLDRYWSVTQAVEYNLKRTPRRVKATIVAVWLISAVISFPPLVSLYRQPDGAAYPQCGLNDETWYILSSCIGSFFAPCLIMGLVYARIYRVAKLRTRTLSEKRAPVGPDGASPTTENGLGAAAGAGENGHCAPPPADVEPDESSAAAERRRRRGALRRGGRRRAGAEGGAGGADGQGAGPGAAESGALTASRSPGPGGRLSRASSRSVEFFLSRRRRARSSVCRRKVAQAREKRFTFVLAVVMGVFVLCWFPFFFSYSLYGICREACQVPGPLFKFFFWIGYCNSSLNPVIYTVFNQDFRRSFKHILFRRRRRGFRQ
From the text: as §1

[6] = molecular target: Alpha 2A adrenergic receptor (Homo sapiens (Human), UniProt P08913); assay: Off-target binding, α2A
Alpha 2A adrenergic receptor, sequence (P08913 whole entry): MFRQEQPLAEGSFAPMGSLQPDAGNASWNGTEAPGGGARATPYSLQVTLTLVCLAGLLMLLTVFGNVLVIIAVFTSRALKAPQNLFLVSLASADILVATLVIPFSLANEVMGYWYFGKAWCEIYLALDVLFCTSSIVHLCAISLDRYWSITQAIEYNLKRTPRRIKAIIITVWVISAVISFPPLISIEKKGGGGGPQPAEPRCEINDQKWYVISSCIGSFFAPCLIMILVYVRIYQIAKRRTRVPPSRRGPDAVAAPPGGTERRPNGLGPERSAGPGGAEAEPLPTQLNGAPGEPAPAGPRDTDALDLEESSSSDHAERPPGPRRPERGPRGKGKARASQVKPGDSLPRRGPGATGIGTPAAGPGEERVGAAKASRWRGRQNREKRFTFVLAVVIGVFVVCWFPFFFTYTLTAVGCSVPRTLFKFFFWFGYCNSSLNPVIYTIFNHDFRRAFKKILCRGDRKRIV
From the text: as §1

[7] = system: CYP1A2, CYP2C9, CYP2C19, CYP2D6, CYP3A4; assay: Inhibition of 5 CYP isozymes; assay type: in vitro ADME; settings: human
[8] = molecular target: mA3AR (Mus musculus (Mouse), UniProt Q61618); assay: Competition binding at mA3AR, HEK293 cell membranes
mA3AR, sequence (Q61618 whole entry): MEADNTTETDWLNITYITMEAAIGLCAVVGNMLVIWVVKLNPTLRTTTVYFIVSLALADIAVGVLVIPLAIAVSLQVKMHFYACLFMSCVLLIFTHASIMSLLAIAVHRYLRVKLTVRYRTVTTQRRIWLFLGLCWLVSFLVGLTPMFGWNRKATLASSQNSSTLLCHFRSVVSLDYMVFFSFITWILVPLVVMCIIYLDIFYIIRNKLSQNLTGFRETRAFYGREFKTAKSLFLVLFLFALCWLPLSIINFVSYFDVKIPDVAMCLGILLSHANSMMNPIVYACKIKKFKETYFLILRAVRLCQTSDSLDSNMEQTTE

[9] = molecular target: hA2AAR (Homo sapiens (Human), UniProt P29274); assay: Radioligand binding at hA2AAR, HEK293 cell membranes, [3H]CGS21680; settings: read-out: hA2AAR % inhibition
hA2AAR, sequence (P29274 whole entry): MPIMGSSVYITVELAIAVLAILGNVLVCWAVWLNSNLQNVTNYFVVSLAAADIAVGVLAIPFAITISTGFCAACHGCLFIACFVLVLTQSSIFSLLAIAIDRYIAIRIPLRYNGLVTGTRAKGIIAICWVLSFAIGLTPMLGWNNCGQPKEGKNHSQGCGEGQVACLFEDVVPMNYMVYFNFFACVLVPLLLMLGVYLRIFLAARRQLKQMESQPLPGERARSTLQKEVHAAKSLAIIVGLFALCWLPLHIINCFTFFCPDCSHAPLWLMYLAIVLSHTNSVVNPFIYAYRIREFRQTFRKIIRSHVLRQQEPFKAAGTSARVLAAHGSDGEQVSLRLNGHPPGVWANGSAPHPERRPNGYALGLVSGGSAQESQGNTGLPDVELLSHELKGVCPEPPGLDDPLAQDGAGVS

[10] = molecular target: SERT (Homo sapiens (Human), UniProt P31645); assay: Off-target binding, SERT
SERT, sequence (P31645 whole entry, species assumed): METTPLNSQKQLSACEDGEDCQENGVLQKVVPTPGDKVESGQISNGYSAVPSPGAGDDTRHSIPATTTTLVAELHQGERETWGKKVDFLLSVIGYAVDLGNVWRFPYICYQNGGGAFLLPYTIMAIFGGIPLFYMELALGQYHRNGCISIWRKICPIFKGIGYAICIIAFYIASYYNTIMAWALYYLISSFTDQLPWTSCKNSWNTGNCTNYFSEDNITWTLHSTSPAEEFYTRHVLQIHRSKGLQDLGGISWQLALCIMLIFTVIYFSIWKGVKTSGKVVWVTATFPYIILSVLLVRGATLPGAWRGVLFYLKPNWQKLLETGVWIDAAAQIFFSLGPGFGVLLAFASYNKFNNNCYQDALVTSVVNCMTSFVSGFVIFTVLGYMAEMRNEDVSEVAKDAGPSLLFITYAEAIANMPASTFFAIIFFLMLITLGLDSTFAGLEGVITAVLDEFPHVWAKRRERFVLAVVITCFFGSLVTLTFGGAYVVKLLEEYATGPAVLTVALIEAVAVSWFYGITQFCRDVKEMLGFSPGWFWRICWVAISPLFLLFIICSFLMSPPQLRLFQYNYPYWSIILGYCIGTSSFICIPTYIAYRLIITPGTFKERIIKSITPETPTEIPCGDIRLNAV
From the text: as §1

[11] = molecular target: mA2AAR (Mus musculus (Mouse), UniProt Q60613); assay: Competition binding at mA2AAR, HEK293 cell membranes; settings: for inhibition at 10 µM: read-out: A2AAR % inhibition, mouse data (m) (converted)
mA2AAR, sequence (Q60613 whole entry): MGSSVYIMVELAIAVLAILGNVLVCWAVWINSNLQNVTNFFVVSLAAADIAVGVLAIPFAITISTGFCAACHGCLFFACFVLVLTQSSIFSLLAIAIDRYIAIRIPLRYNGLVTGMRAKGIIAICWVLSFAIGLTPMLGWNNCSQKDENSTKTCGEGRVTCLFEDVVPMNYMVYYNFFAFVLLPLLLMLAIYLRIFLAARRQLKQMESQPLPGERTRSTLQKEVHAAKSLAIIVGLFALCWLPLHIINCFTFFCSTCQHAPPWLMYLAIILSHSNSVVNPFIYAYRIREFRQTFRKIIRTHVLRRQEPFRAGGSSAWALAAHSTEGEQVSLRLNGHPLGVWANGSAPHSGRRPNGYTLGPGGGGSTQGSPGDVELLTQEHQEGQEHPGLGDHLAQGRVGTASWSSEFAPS

[12] = Stability in liver microsomes, human; assay type: in vitro ADME; settings: for half-life: liver microsomes, read-out: Stability in liver microsomes (t1/2, min): Human
[13] = molecular target: human DAT (Homo sapiens (Human), UniProt Q01959); assay: Radioligand ([3H]WIN35428) binding at the dopamine transporter; settings: for Ki: off-target binding
human DAT, sequence (Q01959 whole entry): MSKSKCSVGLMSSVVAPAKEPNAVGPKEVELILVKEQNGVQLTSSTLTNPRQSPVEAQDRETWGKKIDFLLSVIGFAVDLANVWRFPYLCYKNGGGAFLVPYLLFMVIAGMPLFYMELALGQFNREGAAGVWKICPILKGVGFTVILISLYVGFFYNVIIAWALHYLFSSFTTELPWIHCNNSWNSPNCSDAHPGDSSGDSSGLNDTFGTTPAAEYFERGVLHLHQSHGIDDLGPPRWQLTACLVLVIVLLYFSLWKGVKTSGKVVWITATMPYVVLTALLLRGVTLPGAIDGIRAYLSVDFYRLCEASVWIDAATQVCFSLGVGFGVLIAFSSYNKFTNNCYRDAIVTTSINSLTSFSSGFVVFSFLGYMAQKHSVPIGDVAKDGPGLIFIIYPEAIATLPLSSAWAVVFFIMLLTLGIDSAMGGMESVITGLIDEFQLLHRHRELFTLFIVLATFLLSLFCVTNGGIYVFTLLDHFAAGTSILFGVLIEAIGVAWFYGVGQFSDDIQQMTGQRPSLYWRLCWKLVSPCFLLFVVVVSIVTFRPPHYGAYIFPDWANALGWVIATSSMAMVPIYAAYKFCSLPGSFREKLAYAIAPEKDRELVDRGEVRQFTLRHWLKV

[14] = Stability in liver microsomes, rat; assay type: in vitro ADME; settings: for half-life: liver microsomes, read-out: Stability in liver microsomes (t1/2, min): Rat
[15] = system: chronic constriction injury model of neuropathic pain; assay: CCI model of neuropathic pain, reversal of mechano-allodynia; assay type: in vivo, mice; settings: for Max. effect Emax (% ± SEM) / Time of peak protection / Effect at 3 h (% ± SEM): 3 μmol/kg p.o., mice; for Max. effect Emax (% ± SEM) / Time of peak protection: ipsilateral hind paw; for Efficacy in reversing NP in vivo (of full reversal at peak effect): CCI model
[16] = Stability in simulated fluids (gastric, intestinal); assay type: in vitro ADME
From the text: (§2) In vitro stability parameters for selected compounds are set forth in Table 6, in accordance with an embodiment of the invention.

[17] = Stability in liver microsomes, mouse; assay type: in vitro ADME; settings: for half-life: liver microsomes, read-out: Stability in liver microsomes (t1/2, min): Mouse
[18] = Bioavailability / plasma pharmacokinetics; assay type: in vivo; settings: rat, male SD rats
Method: Male SD rats were dosed intravenously at 1 mg/kg and orally at 1, 3, and 10 mg/kg. Plasma concentration as a function of time is depicted in FIG. 15.

[19] = molecular target: mA1AR (Mus musculus (Mouse), UniProt Q60612); assay: Competition binding at mA1AR, HEK293 cell membranes
mA1AR, sequence (Q60612 whole entry): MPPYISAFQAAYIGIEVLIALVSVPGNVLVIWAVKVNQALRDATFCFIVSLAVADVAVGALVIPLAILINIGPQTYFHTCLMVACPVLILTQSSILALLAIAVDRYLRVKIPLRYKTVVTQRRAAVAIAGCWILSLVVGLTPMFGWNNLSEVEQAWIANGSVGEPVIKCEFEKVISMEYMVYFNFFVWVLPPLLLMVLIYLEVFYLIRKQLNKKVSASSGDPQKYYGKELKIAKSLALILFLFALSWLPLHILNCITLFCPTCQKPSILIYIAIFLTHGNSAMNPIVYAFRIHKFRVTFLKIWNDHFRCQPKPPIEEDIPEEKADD

[20] = system: C57BL/6J mice; settings: mouse, in vivo, 50 mg/kg
[21] = molecular target: r Sigma 1 (Rattus norvegicus (Rat), UniProt Q9R0C9); assay: Off-target binding, Sigma-1
r Sigma 1, sequence (Q9R0C9 whole entry): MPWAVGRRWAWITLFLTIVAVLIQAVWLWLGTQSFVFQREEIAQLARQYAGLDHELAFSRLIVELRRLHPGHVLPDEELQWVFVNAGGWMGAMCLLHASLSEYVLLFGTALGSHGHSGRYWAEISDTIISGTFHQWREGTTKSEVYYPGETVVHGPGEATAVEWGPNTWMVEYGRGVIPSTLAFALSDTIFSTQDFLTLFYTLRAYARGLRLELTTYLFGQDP
From the text: as §1

[22] = system: C57BL/6J mice; assay: Acute liver toxicity, oral gavage; settings: 50 mg/kg oral gavage, 24 h
[23] = molecular target: r Sigma 2 (Rattus norvegicus (Rat), UniProt Q5U3Y7); assay: Off-target binding, Sigma-2
r Sigma 2, sequence (Q5U3Y7 whole entry): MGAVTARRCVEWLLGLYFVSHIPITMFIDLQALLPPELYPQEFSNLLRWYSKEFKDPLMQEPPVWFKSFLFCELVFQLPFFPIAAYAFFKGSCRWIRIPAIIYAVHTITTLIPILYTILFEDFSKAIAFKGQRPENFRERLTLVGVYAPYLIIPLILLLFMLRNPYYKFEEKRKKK
From the text: as §1

[24] = % Unbound in plasma, mouse; assay type: in vitro ADME
[25] = molecular target: PBR (Homo sapiens (Human), UniProt P30536); assay: Off-target binding, PBR; settings: at 10 μM
From the text: as §1

[26] = Aqueous solubility; assay type: physicochemical
[27] = system: chronic constriction injury (CCI) model, mechano-allodynia; assay: Morphine analgesic tolerance in CCI model, co-administration with A3AR agonist; assay type: in vivo, mice
[28] = % Unbound in plasma, human; assay type: in vitro ADME
[29] = molecular target: h5HT6 (Homo sapiens (Human), UniProt P50406); assay: Off-target binding, 5HT6
[30] = molecular target: hH1 histamine receptor (Homo sapiens (Human), UniProt P35367); assay: Off-target binding, H1
[31] = molecular target: Alpha 2B adrenergic receptor (Homo sapiens (Human), UniProt P18089); assay: Off-target binding, α2B; settings: read-out: Ki at α2B
From the text: as §1

[32] = system: 5 CYP isozymes (1A2, 2C9, 2C19, 2D6, 3A4); assay: Inhibition of 5 CYP isozymes; assay type: in vitro ADME; settings: read-out: Inhibition of 5 CYP isozymes: IC50
[33] = molecular target: h5HT2B (Homo sapiens (Human), UniProt P41595); assay: Off-target binding, 5HT2B; settings: read-out: Ki at 5HT2B
[34] = molecular target: hM4 muscarinic receptor (Homo sapiens (Human), UniProt P08173); assay: Off-target binding, M4
[35] = molecular target: hM1 muscarinic receptor (Homo sapiens (Human), UniProt P11229); assay: Off-target binding, M1
From the text: as §1

[36] = molecular target: CYP 3A4 (Homo sapiens (Human), UniProt P08684); assay: CYP inhibition, 3A4; assay type: in vitro ADME
From the text: as §2

[37] = molecular target: h5HT7 (Homo sapiens (Human), UniProt P34969); assay: Off-target binding, 5HT7
[38] = % Unbound in plasma, rat; assay type: in vitro ADME
[39] = molecular target: hM3 muscarinic receptor (Homo sapiens (Human), UniProt P20309); assay: Off-target binding, M3
[40] = molecular target: 5HT2A; assay: Off-target binding, 5HT2A
[41] = molecular target: hA3AR (Homo sapiens (Human), UniProt P0DMS8); assay: Radioligand binding at hA3AR, CHO cell membranes, [125I]I-AB-MECA
[42] = simulated gastric fluid, read-out: Stability in simulated fluids (t1/2, min): Gastric
[43] = simulated intestinal fluid, read-out: Stability in simulated fluids (t1/2, min): Intestinal
[44] = mouse (m), inhibition of binding at 10 μM

Alpha 1B adrenergic receptor, sequence (P35368 whole entry): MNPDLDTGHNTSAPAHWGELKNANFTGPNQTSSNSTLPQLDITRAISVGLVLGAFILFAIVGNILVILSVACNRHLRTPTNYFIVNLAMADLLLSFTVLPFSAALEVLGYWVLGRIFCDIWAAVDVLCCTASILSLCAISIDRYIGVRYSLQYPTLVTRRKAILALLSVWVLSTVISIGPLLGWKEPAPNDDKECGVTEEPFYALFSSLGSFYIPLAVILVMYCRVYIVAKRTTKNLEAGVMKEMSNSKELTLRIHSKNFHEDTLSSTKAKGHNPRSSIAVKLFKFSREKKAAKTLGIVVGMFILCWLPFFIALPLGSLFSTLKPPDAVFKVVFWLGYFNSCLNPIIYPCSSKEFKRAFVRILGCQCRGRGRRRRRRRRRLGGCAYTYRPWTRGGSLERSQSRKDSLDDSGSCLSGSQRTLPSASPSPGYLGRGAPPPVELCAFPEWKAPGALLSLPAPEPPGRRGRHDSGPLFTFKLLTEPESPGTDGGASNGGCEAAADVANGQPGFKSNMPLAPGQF

CNC(=O)[C@@]12C[C@@H]1[C@@H](n1cnc3c(NC)nc(C#Cc4cnccn4)nc31)[C@H](O)[C@@H]2O [Compound 7, (1S,2R,3S,4R,5S)-2,3-Dihydroxy-N-methyl-4-(6-(methylamino)-2-(pyrazin-2-ylethynyl)-9H-purin-9-yl)bicyclo[3.1.0]hexane-1-carboxamide]
Ki ([1]; read-out: Ki at α1B): 9.4 µM | Ki ([1]; read-out: Ki class at α1B): 1 to 10 µM | Off-target effects compared with MRS5698 and MRS5676 [2]: significantly fewer off-target effects | Interactions at other receptors of the off-target panel [2]: No interactions at other receptors | Ki [3]: 4.3 µM | inhibition at 10 µM [4]: 37% | Ki [5]: 6.8 µM | Ki [6]: 7.9 µM | IC50 [7]: > 10 µM | Ki [8]: 0.068 ± 0.005 µM | inhibition at 10 µM [9]: 25 ± 9% | Ki ([10]; read-out: Ki at SERT): > 10 µM | Ki ([10]; read-out: Ki class at SERT): > 10 µM | inhibition at 10 µM [11]: 12% | half-life [12]: 236 min | Ki ([13]; read-out: Ki at DAT): 1.8 µM | Ki ([13]; read-out: Ki class at DAT): 1 to 10 µM | half-life [14]: > 145 min | Max. effect Emax (% ± SEM) [15]: 100 ± 0.0% | Time of peak protection [15]: 1 h | Efficacy in reversing NP in vivo (of full reversal at peak effect) [15]: ~100% | half-life [16, 42]: > 480 min | half-life [16, 43]: > 480 min | half-life [17]: > 145 min

CNC(=O)[C@@]12C[C@@H]1[C@@H](n1cnc3c(NC)nc(C#Cc4ccc(Cl)s4)nc31)[C@H](O)[C@@H]2O [Compound 32, (1S,2R,3S,4R,5S)-4-(2-((5-Chlorothiophen-2-yl)ethynyl)-6-(methylamino)-9H-purin-9-yl)-2,3-dihydroxy-N-methylbicyclo[3.1.0]hexane-1-carboxamide]
half-life ([18]; iv, i.v. 1 mg/kg): 0.7 ± 0.3 h | half-life ([18]; po, p.o. 1 mg/kg): 3.6 ± 0.4 h | Cmax ([18]; po, p.o. 1 mg/kg, read-out: Cmax nM): 63 ± 19 nM | Cmax ([18]; po, p.o. 1 mg/kg, read-out: Cmax ng/ml): 29 ± 8.6 ng/mL | half-life ([18]; po, p.o. 3 mg/kg): 5.3 ± 0.8 h | Cmax ([18]; po, p.o. 3 mg/kg, read-out: Cmax nM): 101 ± 53 nM | Cmax ([18]; po, p.o. 3 mg/kg, read-out: Cmax ng/ml): 47 ± 24 ng/mL | half-life ([18]; po, p.o. 10 mg/kg): 7.8 ± 2 h | Cmax ([18]; po, p.o. 10 mg/kg, read-out: Cmax nM): 711 ± 125 nM | Cmax ([18]; po, p.o. 10 mg/kg, read-out: Cmax ng/ml): 326 ± 57 ng/mL | inhibition at 10 µM ([19]; read-out: A1AR % inhibition, mouse data (m)): 38% | Acute liver toxicity [20]: no acute liver toxicity | Off-target effects compared with MRS5698 and MRS5676 [2]: significantly fewer off-target effects | Interactions at other receptors of the off-target panel [2]: No interactions | inhibition at 10 µM ([21]; at 10 μM): 60 to 70% | Ki ([21]; off-target binding): 1.4 µM | inhibition at 10 µM [4]: 6% | GSH and GSSG levels in liver [22]: no alteration | Liver histology [22]: remained normal | IC50 [7]: > 10 µM | inhibition at 10 µM ([23]; at 10 μM): 60 to 70% | Ki ([23]; off-target binding, read-out: Ki at Sigma-2 (σ2)): 0.63 µM | inhibition at 10 µM [9]: 24% | inhibition at 10 µM [11]: 7% | % Unbound in plasma: Mouse [24]: 6.40% | half-life [12]: 230 min | inhibition at 10 µM [25]: 60 to 70% | Aq. Solubility (pH 7.4, μg/mL) [26]: 16.8 ± 1.1 μg/mL | Increase of the level of radioligand ([3H]WIN35428) binding at the human DAT ([13]; 10 μM): 556% | Enhancement of radioligand binding at the dopamine transporter ([13]; compound at 10 μM): ~5 × | Analgesic effect of the A3AR agonist dose per se ([27]; […]): no analgesic effects per se | Effect on opioid-induced hypersensitivity and analgesic tolerance ([27]; mouse, in vivo): block opioid-induced hypersensitivity and analgesic tolerance | half-life [14]: 128 min | Effect at 3 h (% ± SEM) [15]: 83 ± 11% | Max. effect Emax (% ± SEM) [15]: 93 ± 7% | Time of peak protection [15]: 0.5 to 3 h | Efficacy in reversing NP in vivo (of full reversal at peak effect) [15]: ~100% | half-life [16, 42]: > 480 min | half-life [16, 43]: > 480 min | half-life [17]: 143 min

(1S,2R,3S,4R,5S)-4-(2-((Ferrocen-yl)ethynyl)-6-(methylamino)-9H-purin-9-yl)-2,3-dihydroxy-N-methylbicyclo[3.1.0]hexane-1-carboxamide [Compound 37]
A1AR % inhibition, mouse data (m) [19, 44]: 45% ± 2% | % Unbound in plasma: Human [28]: 7.00% | Off-target effects compared with MRS5698 and MRS5676 [2]: significantly fewer off-target effects | Interactions at other receptors of the off-target panel [2]: No significant interactions | Ki [29]: < 10 µM | Ki [30]: < 10 µM | Ki [31]: < 10 µM | hA1AR % inhibition ([4]; inhibition of binding at 10 μM): 25 ± 2% | Ki [5]: < 10 µM | IC50 [32]: > 9 µM | Ki [8]: 0.00546 ± 0.00067 µM | Ki [33]: < 10 µM | Ki [34]: < 10 µM | Ki [35]: < 10 µM | IC50 [36]: 9.4 µM | Ki [37]: < 10 µM | A2AAR % inhibition, mouse data (m) [11, 44]: 4% ± 2% | % Unbound in plasma: Rat [38]: 6.32% | % Unbound in plasma: Mouse [24]: 4.85% | Stability in liver microsomes (t1/2, min): Human [12]: 3.66 min | Aq. Solubility (pH 7.4, μg/mL) [26]: 14.5 ± 1.0 μg/mL | Ki [39]: < 10 µM | Stability in liver microsomes (t1/2, min): Rat [14]: 6.64 min | Effect at 3 h (% ± SEM) [15]: 78 ± 3% | Max. effect Emax (% ± SEM) [15]: 94 ± 6% | Time of peak protection [15]: 0.5 to 3 h | Efficacy in reversing NP in vivo (of full reversal at peak effect) [15]: ~100% | Stability in simulated fluids (t1/2, min): Gastric ([16]; simulated gastric fluid): 46.5 min | Stability in simulated fluids (t1/2, min): Intestinal ([16]; simulated intestinal fluid): 174 min | Ki [40]: < 10 µM | Ki [41]: 0.00268 ± 0.00044 µM | Stability in liver microsomes (t1/2, min): Mouse [17]: 1.98 min
